In general, IC50 refers to the concentration that inhibits the measured activity by half. As usually defined, the Ki is the dissociation constant of the complex between target and ligand, obtained from inhibition or displacement. The low end stands for higher affinity, the high end for lower affinity. Usually ED50 stands for the dose at which the effect has come halfway, by size or by number of responders. A low value points to an effect at a small dose.

≈ marks a conversion by molar mass, not a printed value.

30 molecules from ChEMBL document CHEMBL5126515, “Progress of thrombus formation and research on the structure-activity relationship for antithrombotic drugs” (Eur J Med Chem, 2022) can be followed below.

Assay [1] deals with Plasma. Nature of the assay: Anticoagulant activity in rabbit plasma assessed as prothrombin time. It is filed as functional, Oryctolagus cuniculus.
The nature of assay [2]: Antiplatelet activity in human platelet. In kind it is functional, cell-based.
For assay [3], the system named is Plasma. Nature of the assay: Anticoagulant activity in rabbit plasma assessed as thrombin time. In kind it is functional, Oryctolagus cuniculus.
In assay [4] the test system is Plasma. Nature of the assay: Anticoagulant activity in rabbit plasma assessed as activated partial thromboplastin time. In kind it is functional, Oryctolagus cuniculus.
The target of assay [5] is P2Y purinoceptor 1 (Homo sapiens, UniProt P47900). Nature of the assay: Antagonist activity at P2Y1 receptor (unknown origin). It is filed as functional.
Assay [6] addresses Coagulation factor X (Mus musculus, UniProt O88947). Nature of the assay: Inhibition of mouse FXa.
The test system of assay [7] is Plasma. Nature of the assay: Antiplatelet activity in plasma (unknown origin) assessed as reduction of ADP-induced platelet aggregation by aggregometer. In kind it is functional, cell-free. The following applies: Homo sapiens.
The subject of assay [8] is Plasma. Nature of the assay: Antiplatelet activity in plasma (unknown origin) assessed as reduction of thrombin-induced platelet aggregation by aggregometer. It is filed as functional, cell-free. The following applies: Homo sapiens.
In assay [9] the test system is Plasma. Nature of the assay: Anticoagulant activity in mouse plasma assessed inhibition of thrombin-induced platelet aggregation. In kind it is functional, cell-free.
Assay [10] relates to Plasma (Mus musculus). Nature of the assay: Anticoagulant activity in mouse plasma assessed as prothrombin time.
Assay [11] relates to Plasma. Nature of the assay: Antiplatelet activity in rabbit plasma assessed as inhibition of arachidonic acid induced platelet aggregation. It is filed as functional, cell-free. The following applies: Oryctolagus cuniculus.
Assay [12] is described as follows: Antiplatelet activity in platelet (unknown origin) assessed as inhibition of ADP-induced platelet aggregation relative to control. In kind it is functional, cell-based.
The species entered for assay [13] is Rattus norvegicus. Nature of the assay: Antiplatelet aggregration activity in arteriovenous bypass thrombosis rat model assessed as aggregation inhibition rate relative to control. In kind it is functional.
For assay [14], the target named is Coagulation factor X (Homo sapiens, UniProt P00742). Nature of the assay: Binding affinity to FXa (unknown origin).
Assay [15] relates to Platelet. Nature of the assay: Potency index ratio of IC50 for CCI-17810 to IC50 test compound against antiplatelet activity in platelet (unknown origin). It is filed as functional.
Assay [16] deals with Plasma. Nature of the assay: Antithrombotic activity in rat plasma. It is filed as functional.
Assay [17] in a line: Antiplatelet aggregation activity in rabbit platelet assessed as reduction in ADP-induced platelet aggregation. It is filed as functional, cell-based. The following applies: Oryctolagus cuniculus.

P2Y purinoceptor 1, sequence (P47900 whole entry): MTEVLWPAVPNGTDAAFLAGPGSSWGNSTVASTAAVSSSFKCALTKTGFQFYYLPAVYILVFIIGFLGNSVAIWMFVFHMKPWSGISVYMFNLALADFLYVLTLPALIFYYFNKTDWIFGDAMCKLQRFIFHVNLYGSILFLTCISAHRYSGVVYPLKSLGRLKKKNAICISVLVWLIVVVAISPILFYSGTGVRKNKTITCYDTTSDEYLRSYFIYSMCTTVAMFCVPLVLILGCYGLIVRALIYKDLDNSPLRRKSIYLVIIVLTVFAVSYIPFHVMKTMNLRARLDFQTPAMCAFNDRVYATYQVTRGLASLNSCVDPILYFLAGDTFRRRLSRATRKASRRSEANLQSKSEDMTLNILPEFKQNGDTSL
Coagulation factor X (Mus musculus, UniProt O88947), sequence (O88947 41-180 limits assumed): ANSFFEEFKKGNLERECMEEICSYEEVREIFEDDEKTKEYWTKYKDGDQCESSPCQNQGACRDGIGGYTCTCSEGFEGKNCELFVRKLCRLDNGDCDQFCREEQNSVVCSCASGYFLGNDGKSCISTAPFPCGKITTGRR
Coagulation factor X (Mus musculus, UniProt O88947), sequence (O88947 232-481 limits assumed): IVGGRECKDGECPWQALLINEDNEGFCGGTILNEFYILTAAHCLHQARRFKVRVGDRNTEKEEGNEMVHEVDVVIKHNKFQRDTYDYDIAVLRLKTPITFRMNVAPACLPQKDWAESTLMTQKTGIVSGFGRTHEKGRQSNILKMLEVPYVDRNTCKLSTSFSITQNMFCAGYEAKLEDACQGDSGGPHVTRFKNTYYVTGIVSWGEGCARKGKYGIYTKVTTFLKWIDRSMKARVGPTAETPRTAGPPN
Coagulation factor X (Homo sapiens, UniProt P00742), sequence (P00742 41-179 limits assumed): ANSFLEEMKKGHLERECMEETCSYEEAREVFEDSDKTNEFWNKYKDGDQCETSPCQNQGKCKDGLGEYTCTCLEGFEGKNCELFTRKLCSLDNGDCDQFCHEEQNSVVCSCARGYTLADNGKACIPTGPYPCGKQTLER
Coagulation factor X (Homo sapiens, UniProt P00742), sequence (P00742 235-488 limits assumed): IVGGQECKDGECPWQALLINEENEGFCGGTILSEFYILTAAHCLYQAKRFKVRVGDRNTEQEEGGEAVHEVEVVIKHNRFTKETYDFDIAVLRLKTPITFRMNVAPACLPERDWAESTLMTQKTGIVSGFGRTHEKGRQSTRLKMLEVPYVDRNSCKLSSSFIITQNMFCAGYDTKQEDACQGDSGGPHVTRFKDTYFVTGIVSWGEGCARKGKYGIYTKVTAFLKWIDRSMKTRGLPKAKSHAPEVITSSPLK

For `COc1ccc(-n2nc(C(N)=O)c3c2C(=O)N(c2ccc(N4CCCCC4=O)cc2)CC3)cc1` [APIXABAN], the Time in assay [1] stood at 10 s. In assay [2], `CC1CC(=O)NN=C1c1ccc(NC(=O)CN2CCCCC2)cc1` (stereo unspecified) yielded a half-inhibitory concentration (IC50) of 0.05 µM. Take `COc1ccc(-c2oc3cc(O)cc(O)c3c(=O)c2O)cc1OC`: the Time was 9.9 s in [3], 5.8 s in [4] and 58.7 s in assay [1]. Take `CNc1ncnc2c1ncn2CC(COP(=O)(O)O)COP(=O)(O)O`: the IC50 in assay [5] was determined as 1.09 µM. `CC(=N)N1CCC(Oc2ccc(N(Cc3ccc4ccc(C(=N)N)cc4c3)S(=O)(=O)CC(=O)O)cc2)CC1` [YM-60828]: in assay [6], the IC50 turned out to be 0.006 µM.

In the case of `COc1cc(O)cc2oc(-c3ccc(O)c(O)c3)c(O)c(=O)c12`, the Time turned out to be 19.4 s in assay [3], 7.6 s in assay [4] and 49.2 s in assay [1]. Turning to `O=C(O)C(Cc1ccc2c(c1)OCC(COCC1CCNCC1)O2)NS(=O)(=O)c1ccccc1` (stereo unspecified), the IC50 in [7] came to 41.7 µM; in [8], 22.2 µM. `CCCCCOC(=O)C/N=C(\N)c1ccc(CC2c3nc4cc(C(=O)N(CCC(=O)OCC)c5ccccc5)ccc4n3CCN2CC(=O)OCCCCC)cc1` (stereo unspecified) returned a half-maximal inhibitory concentration (IC50) in [9] of 0.57 µM.

As for `CNc1nc(Cl)nc2c1ncn2CC(COP(=O)(O)O)COP(=O)(O)O`, it took 0.48 µM to reach half-maximal inhibition in assay [5] (IC50). Regarding `CC1CC(=O)NN=C1c1ccc(NC(=O)Cn2ccnc2)cc1` (stereo unspecified), the IC50 in assay [2] was 0.06 µM. Same read-out and setting: in the case of `O=C1CCC(c2ccc(Nc3ccncc3)cc2)=NN1` [SENAZODAN] it was 0.36 µM. Consider `Cc1cc(=O)oc2cc(OCCOc3ccccc3C(=O)OCCOc3ccc4ccc(=O)oc4c3)ccc12`, for which the Time in assay [10] is 13.1 s. Take `CNc1ncnc2c1ncn2CCC(COP(=O)(O)O)COP(=O)(O)O`: the IC50 in [5] amounted to 1.6 µM. As to `O=C(CC1Nc2c(ccc(Cl)c2[N+](=O)[O-])OC1=O)c1ccc(Br)cc1` (stereo unspecified), the IC50 in assay [11] was found to be 17 µg/mL (≈ 39.8 µM). For `CCOC(=O)CCN(C(=O)c1ccc2c(c1)nc1n2CCN(CC(=O)OC(C)(C)C)C1Cc1ccc(/C(N)=N/CC(=O)OC(C)(C)C)cc1)c1ccccc1` (stereo unspecified), in [9], inhibition was half-maximal at 0.11 µM (IC50).

As to `COc1cc(/C=C/C(=O)O)ccc1OCCN(C)C`, the “inhibition (INH)” value in assay [12] is given as 83.1%. For `CC(=O)Oc1ccccc1C(=O)Oc1ccc(/C=C/C(=O)OCCCCO[N+](=O)[O-])cc1`, in assay [13], the “inhibition (INH)” value worked out at 43.9%. In turn, `COc1ccc(C(=O)Nc2ccccc2NC(=O)c2ccc(OC)cc2)cc1` came in with a Ki in assay [14] of 1 µM. This counts as single-digit micromolar.

As to `COc1cc(/C=C/C(=O)OC2COC3C(O[N+](=O)[O-])COC23)ccc1OC(=O)c1ccccc1OC(C)=O` (stereo unspecified), the “inhibition (INH)” value in [13] is recorded as 28.7%. Turning to `CCCN(CCC)CC(=O)N1CCN(c2ccc(C3=NNC(=O)CC3C)cc2)CC1` (stereo unspecified), in assay [12] (platelet), the IC50 was 0.008 µM. The “Ratio IC50” value in assay [15] turned out to be 60.

On to `COc1cc(C(=O)Nc2cc(C(N)=O)ccc2NC(=O)c2ccc(-n3ccccc3=O)cc2)ccc1O`, for which the Time in assay [1] stood at 8.8 s. In assay [9], `CCOC(=O)CCN(C(=O)c1ccc2c(c1)nc1n2CCN(CC(=O)OCc2ccccc2)C1Cc1ccc(/C(N)=N/CC(=O)OCc2ccccc2)cc1)c1ccccc1` (stereo unspecified) displayed an IC50 of 0.47 µM. `N#Cc1ccc(S[C@@H]2SC[C@@H](O)[C@H](O)[C@H]2O)cc1` [BECIPARCIL] yielded an ED50 in assay [16] of 25 mg/kg. Still for that read-out and setting: the result for `N#Cc1ccc(SC2SC[C@H](O)[C@@H](O)[C@H]2O)cc1` (stereo partly specified) reads 15 mg/kg; that for `N#Cc1ccc(S[C@H]2C[C@@H](O)[C@H](O)CS2)cc1`, 7 mg/kg. In the case of `Cn1c(CNc2ccc(C(=N)N)cc2)nc2cc(C(=O)N(CCC(=O)O)c3ccccn3)ccc21` [DABIGATRAN], in [9], the concentration for half-maximal inhibition (IC50) is 0.6 µM.

In the case of `CNc1nc(Cl)nc2c1ncn2CCC(COP(=O)(O)O)COP(=O)(O)O`, in assay [5], the midpoint of inhibition, the IC50, lay at 0.84 µM. As to `COc1cc(/C=C/C(=O)O)ccc1O` [FERULATE], in [17], the IC50 was found to be 19600 µM.

In assay [6], `CC(=N)N1CCC(Oc2ccc3c(c2)C(=O)NS(=O)(=O)N3C/C=C/c2cccc(C(=N)N)c2)CC1` registered an IC50 of 0.0028 µM. The same measure, in the same setting: the result for `CC(=N)N1CCC(Oc2ccc3c(c2)C(=O)NS(=O)(=O)N3CC(=O)Nc2cccc(C(=N)N)c2)CC1` reads 0.0025 µM.
